Experimental data as given in publication PMC6153520, “Proteasome inhibition and mechanism of resistance to a synthetic, library-based hexapeptide” (Investigational New Drugs, 2018).
Like-named read-outs stand apart in the source and are kept apart here. Where a SMILES comes first, the peptide text is derived from it. The star is where a group is joined. Cbz = O=C(OCc1ccccc1)*; NHBn = c1ccc(CN*)cc1; OBn = c1ccc(CO*)cc1; Bn = c1ccc(C*)cc1; OtBu = CC(C)(C)O*

Key:
[1] = target: T1, chymotrypsin-like proteasome activity (Homo sapiens, UniProt P28074); assay: Proteasome-Glo cell-based assay in intact THP1 cells; settings: 1 h exposure, mean of 3 experiments ± S.D., read-out: IC50, inhibition of chymotrypsin-like proteasome activity
T1 construct: chymotrypsin-like proteasome activity in intact THP1 cells after 1 h exposure; endogenous in cells; host or cells: THP1 (wild type)

proteasome β-subunits = assay: Proteasome affinity labelling and recovery in H929 cells; type: cell-based, human; settings: 5 μM MG132 (1 h) or 20 nM bortezomib (1 h)
K-562 = assay: NCI60 tumor cell line screen; type: cell-based; settings: Homo sapiens, K562, Leukemia, 48 h drug exposure, read-out: LOG10 GI50 (converted)
[2] = system: β5 subunit of the proteasome; design: method as in PMID 16286248, PMID 16455650; settings: ref [15], [21]; read-out: IC50, proteasome inhibition; cited from earlier work
THP1/BTZ50 = settings: relative to THP1/WT; ref Oerlemans et al. [46]; cited from earlier work
SNB-75 = assay: NCI60 tumor cell line screen; type: cell-based; settings: Homo sapiens, CNS, 48 h drug exposure, read-out: LOG10 GI50 (converted)
SK-OV-3 = assay: NCI60 tumor cell line screen; type: cell-based; settings: Homo sapiens, Ovarian, 48 h drug exposure, read-out: LOG10 GI50 (converted)
THP1/BTZ200 = settings: relative to THP1/WT; ref Oerlemans et al. [46]; cited from earlier work
COLO 205 = assay: NCI60 tumor cell line screen; type: cell-based; settings: Homo sapiens, Colon, 48 h drug exposure, read-out: LOG10 GI50 (converted)
CCRF-CEM = assay: NCI60 tumor cell line screen; type: cell-based; settings: Homo sapiens, Leukemia, 48 h drug exposure, read-out: LOG10 GI50
THP1/BTZ100 = settings: relative to THP1/WT; ref Oerlemans et al. [46]; cited from earlier work
[3] = system: NCI60 tumor cell line panel; assay: NCI60 panel COMPARE analysis; type: cell-based, human; settings: mean log10GI50, 2 days of drug exposure
A549/ATCC = assay: NCI60 tumor cell line screen; type: cell-based; settings: Homo sapiens, NSC Lung, 48 h drug exposure, read-out: LOG10 GI50 (converted)
NCI-H226 = assay: NCI60 tumor cell line screen; type: cell-based; settings: Homo sapiens, NSC Lung, 48 h drug exposure, read-out: LOG10 GI50 (converted)
THP1/WT cells [4] = assay: Western blot, accumulation of ubiquitinated proteins; type: cell-based, human; settings: 24 h exposure
Description: Western blot analysis to determine protein levels of (i) β1, β2 and β5 proteasome subunits and (ii) the accumulation of ubiquitinated proteins after treatment with 4A6 was performed essentially as described previously. Cells were harvested in the mid-log phase of growth and washed 3 times with ice-cold buffered saline pH 7.4. Total cell lysates of 5 × 10^6 cells were prepared by resuspension in 500 μl lysis buffer containing: 50 mM Tris-HCl (pH 7.6), 5 mM dithiotreitol, 20 μl PIC (Protease Inhibitor Cocktail; 1 tablet/ml H2O), 20% glycerol and 0.5% NP-40. The suspension was sonicated (MSE sonicator, amplitude 7, for 3 × 5 s with 20 s time intervals at 4 °C) and centrifuged in an Eppendorf micro centrifuge (5 min, 12,000 rpm, 4 °C). Protein content of the supernatant was determined by the Bio-Rad protein assay. 20–30 μg of total cell lysates were fractionated on a 10% polyacrylamide gel containing SDS and transferred onto a PVDF membrane. The membranes were pre-incubated overnight at 4 °C in blocking buffer (5% Bio-Rad Blocker in TBS-T; 10 mM Tris-HCl, pH 8.0, 0.15 M NaCl, 0.1% Tween-20) to prevent non-specific antibody binding. After blocking, the membranes were incubated for 1 h at room temperature with primary antibodies for proteasome subunit β1 (1:1000, PW8140), β2 (1:1000, PW8145) and β5 (1:1000, PW8895) or ubiquitin (1:1000, Santa-Cruz, SC-8017). An antibody to α-tubulin was used (1:1000, Santa Cruz, sc-8035) to check and normalize for any loading differences. After 3 washing steps with TBS-T, the membranes were incubated for 1 h with HRP-labelled donkey-anti-rabbit (1:6000, Amersham, UK) or goat-anti-mouse (1:6000, Dako, Glostrup, Denmark) as secondary antibody. Detection of antibody binding was followed by chemoluminescence using Supersignal (Pierce Biotechnology, Rockford, USA) according to the manufacturers’ instructions. […] The signal intensity was determined densitometrically using Quantity One software (Bio-Rad) and was expressed relative to the intensity of the α-tubulin signal.

DU-145 = assay: NCI60 tumor cell line screen; type: cell-based; settings: Homo sapiens, Prostate, 48 h drug exposure, read-out: LOG10 GI50 (converted)
SNB-19 = assay: NCI60 tumor cell line screen; type: cell-based; settings: Homo sapiens, CNS, 48 h drug exposure, read-out: LOG10 GI50 (converted)
HS 578T = assay: NCI60 tumor cell line screen; type: cell-based; settings: Homo sapiens, Breast, 48 h drug exposure, read-out: LOG10 GI50 (converted)
SK-MEL-5 = assay: NCI60 tumor cell line screen; type: cell-based; settings: Homo sapiens, Melanoma, 48 h drug exposure, read-out: LOG10 GI50 (converted)
THP1/WT [5] = system: THP1/WT; design: method as in Oerlemans et al. [46]; settings: ref Oerlemans et al. [46], cited from earlier work
THP1 cells = assay: Growth inhibition with or without Ruthenium Red; type: cell-based, human; settings: 72 h, with or without 25 μM Ruthenium Red
Description: (§1) Evaluation of drug sensitivity was carried out as described before. Cells were seeded at an initial density of 1.25 × 10^5 cells/ml in individual wells of a 24-well plate containing up to 50 μl of drug solutions. Inhibition of cell growth was determined after 72 h of incubation at 37 °C by determining the number of viable cells […] using trypan blue exclusion. The drug concentration required to inhibit cell growth by 50% compared to untreated controls was defined as the IC50.

HT29 = assay: NCI60 tumor cell line screen; type: cell-based; settings: Homo sapiens, HT-29, Colon, 48 h drug exposure, read-out: LOG10 GI50 (converted)
proteasome = assay: Proteasome inhibitory effect of cleavage product (data not shown)
[6] = Cell growth inhibitory potential of cleavage product (data not shown); type: cell-based
THP1/WT [7] = type: cell-based, human; settings: 72 h
Description: Human monocytic/macrophage THP1 cells (ATTC, Manassas, USA) were cultured in RPMI-1640 medium supplemented with 5% fetal calf serum, 20 mM HEPES, 2 mM glutamine and 100 μg/ml penicillin/ streptomycin at 5% CO2 and 37 °C. Cell cultures were seeded at a density of 3 × 10^5 cells/ml and refreshed twice weekly. […] Some specific experiments also included THP1/BTZ100 cells that were cultured in the absence of BTZ for 6 months (further designated as THP1/BTZ (−100) cells). Mouse thymoma EL4 and human multiple myeloma H929 cells were cultured in RPMI-1640 medium supplemented with 8% fetal calf serum and 100 μg/ml penicillin/streptomycin at 5% CO2 and 37 °C.
as §1

THP1/BTZ200 cells = assay: Apoptosis assay (Annexin-V/7-AAD flow cytometry); type: cell-based, human; settings: 24 h, 4A6 over 0–25 μM
Description: (§2) Induction of apoptosis was analyzed by flow cytometry using APOPTEST™-FITC A700 (VPS Diagnostics, Hoeven, the Netherlands) according to the instructions of the manufacturer. In short, induction of apoptosis was determined after 24 h’ drug exposure. One million cells were harvested and washed 3 times with ice-cold PBS. The cell pellet was incubated for 30 min with 7-Amino-actinomycin D (7-AAD) on ice followed by incubation with Annexin-V according to the instructions of the manufacturer. Annexin-V (early apoptosis) and 7-AAD (late apoptosis) staining was measured by flow cytometry (Beckton & Dickinson, FACScalibur) and analysed using FCSexpress V3 software (Denovo software, Thornhill, Canada).

THP1/WT cells [8] = assay: Apoptosis assay (Annexin-V/7-AAD flow cytometry); type: cell-based, human; settings: 24 h exposure
Description: as §2

## 4A6-dimer: dimer form of 4A6, contains the same amino acid sequence as 4A6 (THTXEG; The dimer linkage, and any protecti)
[1]
  IC50: 490 ± 120 nM

## CC(C)C[C@@H](C=O)NC(=O)[C@H](CC(C)C)NC(=O)[C@H](CC(C)C)NC(=O)OCc1ccccc1 [MG132, Z-Leu-Leu-Leucinal] (Cbz-Leu-Leu-Leu-aldehyde)
Proteasome β-subunits
  inhibition of β-subunit activity probing: blocked activity probing of all β-subunits

## CC(C)C[C@H](NC(=O)[C@H](Cc1ccccc1)NC(=O)c1cnccn1)B(O)O [Bortezomib, Pyrazylcarbonyl-Phe-Leu-boronate]
K-562
  GI50: 0.422 nM
[2]
  IC50: 3 to 5 nM
THP1/BTZ50
  [Resistance Factor] THP1/BTZ50: 45
SNB-75
  GI50: 1.95 nM
SK-OV-3
  GI50: 32.9 nM
THP1/BTZ200
  [Resistance Factor] THP1/BTZ200: 129
COLO 205
  GI50: 0.363 nM
Proteasome β-subunits
  inhibition of β-subunit activity probing: predominantly inhibited β5-subunit probing
CCRF-CEM
  GI50: 0.1 nM
THP1/BTZ100
  [Resistance Factor] THP1/BTZ100: 79
[3]
  orders of magnitude more potent than 4A6: 2–3 orders of magnitude
A549/ATCC
  GI50: 2.44 nM
NCI-H226
  GI50: 0.105 nM
THP1/WT cells [4]
  accumulation of ubiquitinated proteins: marked accumulation of ubiquitinated proteins
DU-145
  GI50: 0.891 nM
SNB-19
  GI50: 0.724 nM
HS 578T
  GI50: 0.422 nM
SK-MEL-5
  GI50: 0.11 nM
THP1/WT [5]; growth inhibition
  IC50: 0.0033 ± 0.0006 µM
THP1/WT [5]; reference value in square brackets
  [Resistance Factor] THP1/WT: 1
THP1 cells
  effect of Ruthenium Red on growth inhibitory activity (protection): marked abrogation
HT29
  GI50: 0.389 nM

## Ac-Thr(tBu)-His(Bzl)-Thr(Bzl)-Nle-OH
proteasome
  proteasome inhibitory effect: did not show any proteasome inhibitory effect
[6]
  cell growth inhibitory potential: did not show any proteasome inhibitory effect or cell growth inhibitory potential

## CC(=O)N[C@H](C(=O)N[C@@H](CCC(=O)OC(C)(C)C)C(=O)N[C@@H](CCC(=O)OCc1ccccc1)C(=O)N[C@@H](CC(=O)OC(C)(C)C)C(=O)N[C@@H](CCC(=O)OC(C)(C)C)C(=O)NCC(=O)NCc1ccccc1)[C@@H](C)OCc1ccccc1 [4E11, Ac-Thr(OBzl)-Glu(OtBu)-Glu(OBzl)-Asp(OtBu)-Glu(OtBu)-Gly-Bza] (Ac-T(Bn)E(OtBu)E(OBn)D(OtBu)E(OtBu)G-NHBn)
THP1/WT [7]
  IC50: 3.9 ± 0.8 µM

## COc1cc([C@@H]2c3cc4c(cc3[C@@H](O[C@@H]3O[C@@H]5CO[C@@H](C)O[C@H]5[C@H](O)[C@H]3O)[C@H]3COC(=O)[C@H]23)OCO4)cc(OC)c1O [etoposide, reference compound]
THP1/BTZ200 cells
  induction of apoptosis: equally effective in inducing apoptosis
THP1/WT cells [8]
  induction of apoptosis: equally effective in inducing apoptosis
